In one test the target is T1, hα2A receptor (Homo sapiens, UniProt P08913).
T1 construct: expressed in transfected cells; host or cells: CHO cells
T1 sequence (P08913 1-465): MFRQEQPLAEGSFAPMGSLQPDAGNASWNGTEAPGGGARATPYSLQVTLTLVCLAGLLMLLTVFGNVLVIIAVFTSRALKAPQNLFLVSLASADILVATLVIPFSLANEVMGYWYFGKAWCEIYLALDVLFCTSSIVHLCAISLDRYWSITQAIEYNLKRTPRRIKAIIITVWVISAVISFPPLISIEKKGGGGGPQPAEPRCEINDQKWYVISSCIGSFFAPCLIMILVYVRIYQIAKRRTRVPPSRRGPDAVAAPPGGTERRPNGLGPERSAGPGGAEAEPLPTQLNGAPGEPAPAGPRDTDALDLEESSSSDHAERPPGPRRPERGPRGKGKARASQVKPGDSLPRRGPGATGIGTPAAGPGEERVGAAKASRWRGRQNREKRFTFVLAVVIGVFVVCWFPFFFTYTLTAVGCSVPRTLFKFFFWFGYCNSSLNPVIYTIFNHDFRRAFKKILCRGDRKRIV
The test can be described thus: Radioligand binding experiment for α2A-adrenergic receptor ([3H]-raulwolscine). Particulars: CHO cell membranes with human α2A receptor, [3H]raulwolscine 1 nM; read-out: pIC50 α2A (converted). Here is the method:
(§1) The interaction of the compounds of Formula (I) with hα2-receptors and h5-HT-transporters was assessed in in vitro radioligand binding experiments. In general, a low concentration of a radioligand with a high binding affinity for a particular receptor or transporter is incubated with a sample of a tissue preparation enriched in a particular receptor or transporter or with a preparation of cells expressing cloned human receptors in a buffered medium. During the incubation, the radioligand binds to the receptor or transporter. When equilibrium of binding is reached, the receptor bound radioactivity is separated from the non-bound radioactivity, and the receptor- or transporter-bound activity is counted. The interaction of the test compounds with the receptor is assessed in competition binding experiments. Various concentrations of the test compound are added to the incubation mixture containing the receptor- or transporter preparation and the radioligand. The test compound in proportion to its binding affinity and its concentration inhibits binding of the radioligand. The radioligand used for hα2A, hα2B and hα2C receptor binding was [^3H]-raulwolscine and for the h5-HT transporter was [^3H]paroxetine.
(§2) CHO cells, stabile transfected with human adrenergic-α2A-, -α2B or α2C receptor cDNA, were cultured in Dulbecco's Modified Eagle's Medium (DMEM)/Nutrient mixture Ham's F12 (ratio 1:1)(Gibco, Gent-Belgium) supplemented with 10% heat inactivated fetal calf serum (Life Technologies, Merelbeke-Belgium) and antibiotics (100 IU/ml penicillin G, 100 μg/ml streptomycin sulphate, 110 μg/ml pyruvic acid and 100 μg/ml L-glutamine). One day before collection, cells were induced with 5 mM sodiumbutyrate. Upon 80-90% of confluence, cells were scraped in phosphate buffered saline without Ca^2+ and Mg^2+ and collected by centrifugation at 1500×g for 10 min. The cells were homogenised in Tris-HCl 50 mM using an Ultraturrax homogenizer and centrifuged for 10 min at 23,500×g. The pellet was washed once by resuspension and rehomogenization and the final pellet was resuspended in Tris-HCl, divided in 1 ml aliquots and stored at −70° C.
(§3) Membranes were thawed and re-homogenized in incubation buffer (glycylglycine 25 mM, pH 8.0). In a total volume of 500 μl, 2-10 μg protein was incubated with [^3H]raulwolscine (NET-722) (New England Nuclear, USA) (1 nM final concentration) with or without competitor for 60 min at 25° C. followed by rapid filtration over GF/B filter using a Filtermatel 96 harvester (Packard, Meriden, Conn.). Filters were rinsed extensively with ice-cold rinsing buffer (Tris-HCl 50 mM pH 7.4). Filter-bound radioactivity was determined by scintillation counting in a Topcount (Packard, Meriden, Conn.) and results were expressed as counts per minute (cpm). Non-specific binding was determined in the presence of 1 μM oxymetazoline for hα2A- and hα2B receptors and 1 μM spiroxatrine for hα2C receptors.
(§4) Data from assays in the presence of compound were calculated as a percentage of total binding measured in the absence of test compound. Inhibition curves, plotting percent of total binding versus the log value of the concentration of the test compound, were automatically generated, and sigmoidal inhibition curves were fitted using non-linear regression. The pIC50 values of test compounds were derived from individual curves.

In another test the target is T2, hα2C receptor (Homo sapiens, UniProt P18825).
T2 construct: expressed in transfected cells; host or cells: CHO cells
T2 sequence (P18825 1-462): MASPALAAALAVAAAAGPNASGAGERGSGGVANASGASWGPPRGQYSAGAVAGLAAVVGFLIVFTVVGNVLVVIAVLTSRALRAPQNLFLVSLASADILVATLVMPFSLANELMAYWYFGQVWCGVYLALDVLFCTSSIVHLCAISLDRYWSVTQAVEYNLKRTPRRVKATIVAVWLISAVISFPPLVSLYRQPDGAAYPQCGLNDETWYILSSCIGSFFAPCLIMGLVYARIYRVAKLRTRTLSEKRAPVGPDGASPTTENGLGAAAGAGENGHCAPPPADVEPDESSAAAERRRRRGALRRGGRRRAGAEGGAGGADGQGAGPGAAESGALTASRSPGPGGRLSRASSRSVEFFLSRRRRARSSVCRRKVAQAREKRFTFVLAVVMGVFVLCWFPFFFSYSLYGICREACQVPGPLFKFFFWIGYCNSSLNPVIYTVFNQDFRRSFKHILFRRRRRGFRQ
The test can be described thus: Radioligand binding experiment for α2C-adrenergic receptor ([3H]-raulwolscine). Particulars: CHO cell membranes with human α2C receptor, [3H]raulwolscine 1 nM; read-out: pIC50 α2C (converted). Here is the method:
as §1, §2, §3, §4

The target in a further test is T3, h5-HT transporter (Homo sapiens, UniProt P31645).
T3 construct: Human platelet membranes (Oceanix Biosciences Corporation, Hanover, Md., USA) were thawed; tissue Oceanix Biosciences Corporation; host or cells: human platelet membranes
T3 sequence (P31645 whole entry): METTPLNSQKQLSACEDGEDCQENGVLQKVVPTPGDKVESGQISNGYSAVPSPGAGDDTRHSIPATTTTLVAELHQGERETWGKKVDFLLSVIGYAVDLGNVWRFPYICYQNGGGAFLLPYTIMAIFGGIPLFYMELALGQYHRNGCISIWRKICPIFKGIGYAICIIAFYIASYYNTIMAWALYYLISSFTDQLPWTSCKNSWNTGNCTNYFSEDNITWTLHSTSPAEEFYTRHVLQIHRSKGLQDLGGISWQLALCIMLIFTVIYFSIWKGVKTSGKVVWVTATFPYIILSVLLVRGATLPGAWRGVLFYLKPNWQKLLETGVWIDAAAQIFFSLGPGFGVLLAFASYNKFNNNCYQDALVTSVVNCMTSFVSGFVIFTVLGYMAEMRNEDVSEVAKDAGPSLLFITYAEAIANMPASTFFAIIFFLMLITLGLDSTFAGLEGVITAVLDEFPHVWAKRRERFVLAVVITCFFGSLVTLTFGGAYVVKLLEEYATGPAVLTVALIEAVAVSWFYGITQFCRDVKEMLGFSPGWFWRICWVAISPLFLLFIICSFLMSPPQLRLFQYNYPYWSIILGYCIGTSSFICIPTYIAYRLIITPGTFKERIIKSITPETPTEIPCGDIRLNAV
The test can be described thus: Radioligand binding experiment for 5-HT transporter ([3H]paroxetine). The conditions noted are these: human platelet membranes, [3H]paroxetine 0.5 nM. Here is the method: as §1
Human platelet membranes (Oceanix Biosciences Corporation, Hanover, Md., USA) were thawed, diluted in buffer (Tris-HCl 50 mM, 120 mM NaCl and 5 mM KCl) and quickly (max 3 s) homogenised with an Ultraturrax homogenizer. In a total volume of 250 μL, 50-100 μg protein was incubated with [^3H]paroxetine (NET-869) (New England Nuclear, USA) (0.5 nM final concentration) with or without competitor for 60 min at 25° C. Incubation was stopped by rapid filtration of the incubation mixture over GF/B filters, pre-wetted with 0.1% polyethyleneamine, using a Filtermatel 96 harvester (Packard, Meriden, Conn.). Filters were rinsed extensively with ice-cold buffer and radioactivity on the filters was counted in a Topcount liquid scintillation counter (Packard, Meriden, Conn.). Data were expressed as cpm. Imipramine (at 1 μM final concentration) was used to determine the non-specific binding.
as §4

Each structure is given as a SMILES string.

As to `CC(=Cc1ccc(F)cc1)CN1CCN(CC2ON=C3c4ccc(NC(C)CO)cc4OCC32)CC1` (stereo not drawn) [Compound 134], the IC50 is 63.1 nM on hα2A receptor, 126 nM at hα2C receptor and 126 nM on h5-HT transporter.

As to `C/C(=C\c1ccccc1)CN1CCN(CC2ON=C3c4ccc(N(C)CCN(C)C)cc4OCC32)CC1` (stereo not drawn) [Compound 1], the IC50 on hα2A receptor was 1.26 nM; on hα2C receptor, 1 nM; at h5-HT transporter it was 6.31 nM.

Turning to `COc1cc2c(cc1NCCN1CCCC1)OCC1C2=NOC1CN1CCN(CC(C)=Cc2cccc(F)c2)CC1` (stereo not drawn) [Compound 27], the IC50 on hα2A receptor is 15.8 nM; on hα2C receptor, 3.16 nM; at h5-HT transporter, 5.01 nM.

Take `CC(=Cc1ccc(F)cc1)CN1CCN(CC2ON=C3c4ccc(N(C)CCNC(C)C(C)C)cc4OCC32)CC1` (stereo not drawn) [Compound 110]: the IC50 at hα2A receptor is 39.8 nM; on hα2C receptor, 5.01 nM; at h5-HT transporter it was 5.01 nM.

Turning to `C=CCN(C)CCN(C)c1ccc2c(c1)OCC1C2=NOC1CN1CCN(CC(C)=Cc2ccc(F)cc2)CC1` (stereo not drawn) [Compound 121], the values for the IC50 on hα2A receptor, on hα2C receptor and at h5-HT transporter were 501 nM, 100 nM and 158 nM, respectively.

In the case of `CNCCNc1ccc2c(c1)OCC1C2=NOC1CN1CCN(CC(C)=Cc2ccc(F)cc2)CC1` (stereo not drawn) [Compound 20], the IC50 was 31.6 nM on hα2A receptor, 3.16 nM at hα2C receptor and 7.94 nM at h5-HT transporter.

For `CC(=Cc1ccc(F)cc1)CN1CCN(CC2ON=C3c4ccc(N(C)CCN5CCC5)cc4OCC32)CC1` (stereo not drawn) [Compound 123], the IC50 at hα2A receptor was 10 nM; on hα2C receptor it was 3.16 nM; at h5-HT transporter it was 7.94 nM.

As to `COc1cc2c(cc1N)OCC1C2=NOC1CN1CCN(C/C(C)=C/c2ccccc2)CC1` (stereo not drawn) [Compound 8], the IC50 at hα2A receptor was 5.01 nM; on hα2C receptor it was 1.58 nM; at h5-HT transporter it was 25.1 nM.

For `COc1cc2c(cc1N(C)CCO)OCC1C2=NOC1CN1CCN(CC(C)=Cc2cccc(F)c2)CC1` (stereo not drawn) [Compound 36], the IC50 on hα2A receptor is 20 nM; on hα2C receptor, 2.51 nM; at h5-HT transporter it was 25.1 nM.

Take `CC(=Cc1ccccc1)CN1CCN(CC2ON=C3c4ccc(NC(=O)C5CC5)cc4OCC32)CC1` (stereo not drawn) [Compound 51]: the values for the IC50 at hα2A receptor, on hα2C receptor and on h5-HT transporter were 1.58 nM, 1 nM and 15.8 nM, respectively.

Consider `COc1cc2c(cc1N1CCC1=O)OCC1C2=NOC1CN1CCN(CC(C)=Cc2ccc(F)cc2)CC1` (stereo not drawn) [Compound 107], for which the IC50 at hα2A receptor was 7.94 nM; on hα2C receptor, 10 nM; at h5-HT transporter, 50.1 nM.

In the case of `COc1cc2c(cc1NCC(C)C)OCC1C2=NOC1CN1CCN(CC(C)=Cc2ccc(F)cc2)CC1` (stereo not drawn) [Compound 116], the IC50 on hα2A receptor is 200 nM; on hα2C receptor it was 158 nM; at h5-HT transporter, 79.4 nM.

Turning to `CCNc1ccc2c(c1)OCC1C2=NOC1CN1CCN(CC(C)=Cc2ccccc2)CC1` (stereo not drawn) [Compound 18], the results for the IC50 at hα2A receptor, at hα2C receptor and on h5-HT transporter were 6.31 nM, 1.26 nM and 50.1 nM, respectively.

In the case of `CC(=Cc1ccc(F)cc1)CN1CCN(CC2ON=C3c4ccc(N(C)CCNCC(C)O)cc4OCC32)CC1` (stereo not drawn) [Compound 119], the IC50 at hα2A receptor is 10 nM; at hα2C receptor it was 3.16 nM; on h5-HT transporter, 3.16 nM.

In the case of `COc1cc2c(cc1NC(=O)C1CC1)OCC1C2=NOC1CN1CCN(CC(C)=Cc2cccc(F)c2)CC1` (stereo not drawn) [Compound 53], the IC50 is 3.98 nM at hα2A receptor, 0.631 nM at hα2C receptor and 10 nM at h5-HT transporter.

`CCC(C)NC(=O)OCCN(C)c1ccc2c(c1)OCC1C2=NOC1CN1CCN(CC(C)=Cc2ccc(F)cc2)CC1` (stereo not drawn) [Compound 127]: the figures for the IC50 on hα2A receptor, at hα2C receptor and on h5-HT transporter were 316 nM, 158 nM and 200 nM, respectively.

In the case of `CC(=Cc1ccc(F)cc1)CN1CCN(CC2ON=C3c4ccc(N(C)CCNCC5CC5)cc4OCC32)CC1` (stereo not drawn) [Compound 118], the IC50 was 12.6 nM at hα2A receptor, 3.16 nM on hα2C receptor and 3.16 nM on h5-HT transporter.

Consider `CCCC(C)C(=O)Nc1cc2c(cc1OC)C1=NOC(CN3CCN(CC(C)=Cc4ccc(F)cc4)CC3)C1CO2` (stereo not drawn) [Compound 113], for which the IC50 on hα2A receptor was 79.4 nM; on hα2C receptor, 39.8 nM; at h5-HT transporter, 63.1 nM.

Regarding `CC(=Cc1ccc(F)cc1)CN1CCN(CC2ON=C3c4ccc(NC(C)C)cc4OCC32)CC1` (stereo not drawn) [Compound 129], the IC50 at hα2A receptor is 63.1 nM; on hα2C receptor it was 31.6 nM; at h5-HT transporter, 158 nM.

With `CCC(C)Nc1ccc2c(c1)OCC1C2=NOC1CN1CCN(CC(C)=Cc2ccc(F)cc2)CC1` (stereo not drawn) [Compound 131], the IC50 at hα2A receptor was 158 nM; at hα2C receptor it was 50.1 nM; on h5-HT transporter, 63.1 nM.

Consider `COc1cc2c(cc1N)OCC1C2=NOC1CN1CCN(CC(C)=Cc2cccc(F)c2)CC1` (stereo not drawn) [Compound 86], for which the IC50 at hα2A receptor was 6.31 nM; on hα2C receptor, 1.58 nM; at h5-HT transporter, 5.01 nM.

As to `CC(=Cc1ccc(F)cc1)CN1CCN(CC2ON=C3c4ccc(NC(=O)C5CC5)cc4OCC32)CC1` (stereo not drawn) [Compound 138], the figures for the IC50 at hα2A receptor, at hα2C receptor and on h5-HT transporter were 31.6 nM, 31.6 nM and 50.1 nM, respectively.

Regarding `CCN(CC)CCN(C)c1ccc2c(c1)OCC1C2=NOC1CN1CCN(CC(C)=Cc2ccc(F)cc2)CC1` (stereo not drawn) [Compound 25], the IC50 was 6.31 nM on hα2A receptor, 0.398 nM at hα2C receptor and 7.94 nM on h5-HT transporter.

As for `CC(=Cc1cccc(F)c1)CN1CCN(CC2ON=C3c4ccc(N(C)CCN(C)C)cc4OCC32)CC1` (stereo not drawn) [Compound 22], the results for the IC50 on hα2A receptor, at hα2C receptor and on h5-HT transporter were 1.58 nM, 1.26 nM and 1.58 nM, respectively.

For the compound `CC(=Cc1ccc(F)cc1)CN1CCN(CC2ON=C3c4ccc(NC(N)=O)cc4OCC32)CC1` (stereo not drawn) [Compound 137], the IC50 at hα2A receptor was 6.31 nM; on hα2C receptor, 10 nM; on h5-HT transporter it was 20 nM.

(Values after patent publication US7265103B2, “Substituted amino isoxazoline derivatives and their use as anti-depressants” (Janssen Pharmaceutica NV., priority 2002, dated 2007).)
